Data taken from publication PMC2248166, “Quantitative peptide binding motifs for 19 human and mouse MHC class I molecules derived using positional scanning combinatorial peptide libraries” (Immunome Research, 2008).

Experiments:
[1] = molecular target: HLA A*6802 (Homo sapiens, UniProt P04439, A269V/D140Y/D185E/E176V/E277Q/E87N/F33Y/G231S/I121R/I166T/I218V/L180W/L300P/L318F/N151K/P208A/P217A/Q86R/R138H/R169H/S129P/T345S/V36M); assay type: binding
[2] = molecular target: HLA B*5401 (Homo sapiens, UniProt P01889, A329T/C349S/D138N/D201E/E176V/E187T/E204Q/E69G/I76V/K202T/L119W/R155S/R180L/S121T/S35A/S48A/V127L/V306I/V36M/Y140L); assay type: binding
[3] = molecular target: HLA B*5802 (Homo sapiens, UniProt P01889, A329T/C349S/D201E/D98Y/E176V/E187L/E204Q/E69T/G107R/I218V/I90N/K202T/L105A/N104I/N87E/Q89R/Q94S/R106L/R155S/R180L/R86G/S101N/S121W/S35A/S48A/V127L/V306I/V36M/Y140S/Y91M); assay type: binding
[4] = molecular target: HLA B*0702 (Homo sapiens, UniProt P01889); assay type: binding; settings: positional scanning combinatorial 9-mer library; normalized to 1.0 for the best residue at each position
[5] = molecular target: HLA B*1503 (Homo sapiens, UniProt P01889, A329T/A93T/A95T/C349S/D201E/D98Y/E187L/E204Q/K202T/N87E/Q94N/R155S/R180L/S121R/S35A/V306I/V36M/Y140S/Y91S); experiment: biochemical; assay type: binding
[6] = molecular target: HLA B*0801 (Homo sapiens, UniProt P01889, A93T/A95T/D138N/E176V/E187T/K202T/Q94N/R180D/S35A/V36M/Y33D/Y91F); experiment: biochemical; assay type: binding
[7] = molecular target: HLA B*3501 (Homo sapiens, UniProt P01889, A329T/A93T/A95T/C349S/D201E/D98Y/E176V/E187L/E204Q/E69T/I218V/K202T/L119I/Q94N/R155S/R180L/S121R/S35A/S48A/T118I/V127L/V306I/V36M/Y140S/Y91F); assay type: binding
[8] = molecular target: HLA B*5301 (Homo sapiens, UniProt P01889, A329T/A93T/A95T/C349S/D201E/D98Y/E176V/E187L/E204Q/E69T/G107R/I218V/K202T/L105A/L119I/N104I/Q94N/R106L/R155S/R180L/S101N/S121R/S35A/S48A/T118I/V127L/V306I/V36M/Y140S/Y91F); assay type: binding
[9] = molecular target: HLA B*5801 (Homo sapiens, UniProt P01889, A329T/C349S/D201E/D98Y/E176V/E187L/E204Q/E69T/G107R/I218V/I90N/K202T/L105A/L119I/N104I/N87E/Q89R/Q94S/R106L/R155S/R180L/R86G/S101N/S121R/S35A/S48A/T118I/V127L/V306I/V36M/Y140S/Y91M); assay type: binding
[10] = molecular target: HLA A*0201 (Homo sapiens, UniProt P04439, D140Y/D185E/D98H/E176V/E277Q/G131W/G231S/I119V/I121R/I166T/I218V/L300P/L318F/N151K/N90K/P208A/P217A/Q86G/Q94H/R138H/R169H/T345S); settings: positional scanning combinatorial 9-mer library; normalized to 1.0 for the best residue at each position
[11] = molecular target: H-2 K^k (Mus musculus, UniProt P04223); assay type: binding
H-2 K^k, sequence (P01887 21-119): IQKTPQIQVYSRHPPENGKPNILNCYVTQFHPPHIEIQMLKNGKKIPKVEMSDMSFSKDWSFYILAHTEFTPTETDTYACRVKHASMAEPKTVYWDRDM
H-2 K^k, sequence (P04223 22-369): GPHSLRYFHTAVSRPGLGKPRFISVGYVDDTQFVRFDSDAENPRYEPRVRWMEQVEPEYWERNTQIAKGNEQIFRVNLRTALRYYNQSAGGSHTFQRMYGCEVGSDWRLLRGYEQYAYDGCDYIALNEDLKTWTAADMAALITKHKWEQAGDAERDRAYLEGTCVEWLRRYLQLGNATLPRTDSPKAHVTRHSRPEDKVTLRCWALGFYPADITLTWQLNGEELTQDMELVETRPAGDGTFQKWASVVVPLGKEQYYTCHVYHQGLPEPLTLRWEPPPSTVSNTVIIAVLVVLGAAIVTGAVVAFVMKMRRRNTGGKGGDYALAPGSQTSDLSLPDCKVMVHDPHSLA

[12] = molecular target: H-2 D^d (Mus musculus, UniProt P01900); assay type: binding
H-2 D^d, sequence (P01900 whole entry, looked up): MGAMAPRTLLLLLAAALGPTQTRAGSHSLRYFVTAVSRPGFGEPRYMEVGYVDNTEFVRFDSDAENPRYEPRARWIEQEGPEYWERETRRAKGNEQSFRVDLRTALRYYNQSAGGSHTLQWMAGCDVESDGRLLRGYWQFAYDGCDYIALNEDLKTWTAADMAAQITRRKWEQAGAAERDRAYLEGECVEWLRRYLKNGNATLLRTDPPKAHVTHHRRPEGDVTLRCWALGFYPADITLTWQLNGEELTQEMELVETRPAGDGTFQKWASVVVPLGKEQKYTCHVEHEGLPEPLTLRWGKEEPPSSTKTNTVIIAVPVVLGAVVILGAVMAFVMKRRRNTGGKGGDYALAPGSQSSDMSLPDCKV

[13] = molecular target: HLA B*2705 (Homo sapiens, UniProt P01889, D138H/D201E/E176V/E204Q/G107R/H137Y/K202T/N104T/N87E/Q56L/Q94K/R106L/R155S/R180L/S101D/S121N/S48T/Y140D/Y33H/Y91C); assay type: binding; settings: positional scanning combinatorial 9-mer library; normalized to 1.0 for the best residue at each position
[14] = molecular target: HLA A*3001 (Homo sapiens, UniProt P04439, D140H/D185E/E176W/F33S/G80R/H175R/K168Q/R138E/R41S); experiment: biochemical; assay type: binding
[15] = molecular target: HLA B*5101 (Homo sapiens, UniProt P01889, A329T/A93T/A95T/C349S/D138N/D201E/D98Y/E187L/E204Q/E69T/G107R/I218V/K202T/L105A/L119W/N104I/Q94N/R106L/R155S/R180L/S101N/S121T/S35A/S48A/V306I/V36M/Y195H/Y91F); assay type: binding
[16] = molecular target: HLA A*3201 (Homo sapiens, UniProt P04439, A270S/D101S/D185E/E176V/E277Q/F133L/G103R/G107R/G231S/H175R/I121M/I218V/I322F/K168Q/L105A/L300P/L318F/M331R/P208A/P217A/Q94H/R106L/R138Q/S129P/T104I/T323A/T345S/V100E/V321M/V358M); experiment: biochemical; assay type: binding
[17] = molecular target: HLA B*1501 (Homo sapiens, UniProt P01889, A329T/A93T/A95T/C349S/D201E/D98Y/E187L/E204Q/E69M/E70A/K202T/N87E/Q94N/R155S/R180W/S121R/S35A/S48A/V306I/V36M/Y140S/Y91S); experiment: biochemical; assay type: binding
[18] = molecular target: H-2 D^b (Mus musculus, UniProt P01899); assay type: binding
H-2 D^b, sequence (P01887 21-119): as the sequence (P01887 21-119) above
H-2 D^b, sequence (P01899 25-362): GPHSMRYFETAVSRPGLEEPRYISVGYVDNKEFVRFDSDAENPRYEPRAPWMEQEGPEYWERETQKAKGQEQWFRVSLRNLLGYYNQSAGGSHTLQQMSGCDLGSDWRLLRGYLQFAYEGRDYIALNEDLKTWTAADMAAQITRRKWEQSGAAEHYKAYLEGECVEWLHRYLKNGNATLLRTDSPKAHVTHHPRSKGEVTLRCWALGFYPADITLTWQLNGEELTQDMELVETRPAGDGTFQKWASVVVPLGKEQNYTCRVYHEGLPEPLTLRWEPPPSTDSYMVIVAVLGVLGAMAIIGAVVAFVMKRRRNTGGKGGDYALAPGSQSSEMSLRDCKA

Sequence	Normalized average relative binding affinity (ARB), HLA A*6802 [1]	Normalized average relative binding affinity (ARB), HLA B*5401 [2]	Normalized average relative binding affinity (ARB), HLA B*5802 [3]	Normalized average relative binding affinity (ARB), HLA B*0702 [4]	Normalized average relative binding affinity (ARB), HLA B*1503 [5]	Normalized average relative binding affinity (ARB), HLA B*0801 [6]	Normalized average relative binding affinity (ARB), HLA B*3501 [7]	Normalized average relative binding affinity (ARB), HLA B*5301 [8]	Normalized average relative binding affinity (ARB), HLA B*5801 [9]	Normalized average relative binding affinity (ARB), HLA A*0201 [10]	Normalized average relative binding affinity (ARB), H-2 Kk [11]	Normalized average relative binding affinity (ARB), H-2 Dd [12]	Normalized average relative binding affinity (ARB), HLA B*2705 [13]	Normalized average relative binding affinity (ARB), HLA A*3001 [14]	Normalized average relative binding affinity (ARB), HLA B*5101 [15]	Normalized average relative binding affinity (ARB), HLA A*3201 [16]	Normalized average relative binding affinity (ARB), HLA B*1501 [17]	Normalized average relative binding affinity (ARB), H-2 Db [18]
XKXXXXXXX [3064.0029]	0.011	0.0038	0.045	0.0028	0.29	0.097	0.0078	0.0053	0.014	0.012	0.0031	0.093	0.0076	0.026	0.022	0.0079	0.0091	0.052
XLXXXXXXX [3064.0030]	0.097	0.0037	0.13	0.016	0.18	0.72	0.035	0.035	0.043	1.0	0.062	0.035	0.0053	0.16	0.022	0.29	0.52	0.18
XMXXXXXXX [3064.0031]	0.055	0.0072	0.17	0.0028	0.57	0.70	0.035	0.040	0.0033	0.19	0.012	0.018	0.010	0.70	0.039	0.63	0.96	0.73
XNXXXXXXX [3064.0032]	0.034	0.0018	0.20	0.0028	0.032	0.16	0.0078	0.0083	0.012	0.0062	0.0053	0.018	0.0016	0.10	0.022	0.025	0.052	0.11
XPXXXXXXX [3064.0033]	0.041	0.19	0.051	1.0	0.031	1.0	1.0	1.0	0.014	0.0034	0.017	0.064	0.0016	0.024	1.0	0.022	0.015	0.036
XQXXXXXXX [3064.0034]	0.0081	0.0034	0.21	0.011	1.0	0.13	0.039	0.047	0.024	0.14	0.053	0.015	0.016	0.33	0.11	0.32	1.0	1.0
